Results taken from PubChem BioAssay (NCI).
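Assay format: 96-well plates, 48-hour exposure. GI50 marks 50% less growth. TGI: total growth inhibition.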

What was measured:
Assay in all cases: growth of human tumour cells (NCI), 48 h
[1] = system: HOP-62 NSCLC
[2] = system: MDA-MB-231 breast
[3] = system: SF-268 CNS
[4] = system: MALME-3M melanoma
[5] = system: NCI-H226 lung
[6] = system: SN12C renal
[7] = system: SR leukemia
[8] = system: NCI-H23 lung
[9] = system: OVCAR-8 ovarian
[10] = system: HS 578T breast
[11] = system: K-562 leukemia
[12] = system: SF-295 CNS
[13] = system: NCI/ADR-RES ovarian
[14] = system: HCT-116 colon
[15] = system: MOLT-4 leukemia
[16] = system: SW-620 colon
[17] = system: A498 renal
[18] = system: MCF7 breast
[19] = system: SNB-19 CNS
[20] = system: U251 CNS
[21] = system: CCRF-CEM leukemia
[22] = system: A549 NSCLC
[23] = system: CAKI-1 renal
[24] = system: IGROV1 ovarian
[25] = system: HT29 colon
[26] = system: RXF 393 renal
[27] = system: NCI-H460 lung
[28] = system: HCC-2998 colon
[29] = system: DU-145 prostate
[30] = system: RPMI-8226 leukemia
[31] = system: UACC-62 melanoma
[32] = system: BT-549 breast
[33] = system: OVCAR-4 ovarian
[34] = system: SK-MEL-5 melanoma
[35] = system: T-47D breast
[36] = system: ACHN renal
[37] = system: SK-MEL-28 melanoma
[38] = system: M14 melanoma
[39] = system: EKVX NSCLC
[40] = system: OVCAR-5 ovarian
[41] = system: HCT-15 colon
[42] = system: COLO 205 colon
[43] = system: SK-OV-3 ovarian
[44] = system: TK-10 renal
[45] = system: PC-3 prostate
[46] = system: UACC-257 melanoma
[47] = system: SNB-75 CNS
[48] = system: UO-31 renal
[49] = system: OVCAR-3 ovarian
[50] = system: SF-539 CNS
[51] = system: HL-60(TB) leukemia
[52] = system: KM12 colon
[53] = system: SK-MEL-2 melanoma
[54] = system: LOX IMVI melanoma
[55] = system: 786-0 renal
[56] = system: NCI-H522 lung
[57] = system: HOP-92 NSCLC

COc1ccc([C@H]2[C@H](O)C(=O)N2c2cc(OC)c(OC)c(OC)c2)cc1O
GI50 [1]: < 22.4 nM
TGI [1]: > 100000 nM
GI50 [2]: < 17.8 nM
TGI [2]: > 100000 nM
GI50 [3]: 30.6 nM
TGI [3]: > 100000 nM
GI50 [4]: < 28.4 nM
TGI [4]: > 100000 nM
GI50 [5]: < 10 nM
TGI [5]: 2270 nM
GI50 [6]: < 16.9 nM
TGI [6]: > 100000 nM
GI50 [7]: < 12.4 nM
TGI [7]: > 100000 nM
GI50 [8]: 37.9 nM
TGI [8]: > 100000 nM
GI50 [9]: < 16.3 nM
GI50 [10]: 20 nM
TGI [10]: > 100000 nM
GI50 [11]: < 15.8 nM
TGI [11]: > 100000 nM
GI50 [12]: 33.7 nM
TGI [12]: > 100000 nM
GI50 [13]: 33.3 nM
TGI [13]: > 100000 nM
GI50 [14]: < 10 nM
TGI [14]: > 100000 nM
GI50 [15]: < 19.2 nM
TGI [15]: > 100000 nM
GI50 [16]: < 18.2 nM
TGI [16]: > 100000 nM
GI50 [17]: > 100000 nM
TGI [17]: > 100000 nM
GI50 [18]: < 10 nM
TGI [18]: > 100000 nM
GI50 [19]: 48.5 nM
TGI [19]: > 100000 nM
GI50 [20]: 21.7 nM
TGI [20]: > 100000 nM
GI50 [21]: < 16.7 nM
TGI [21]: > 100000 nM
GI50 [22]: 32.1 nM
TGI [22]: > 100000 nM
GI50 [23]: < 15.3 nM
TGI [23]: > 100000 nM
GI50 [24]: < 20.6 nM
TGI [24]: > 100000 nM
GI50 [25]: 202 nM
TGI [25]: 1760 nM
GI50 [26]: 60.2 nM
TGI [26]: > 100000 nM
GI50 [27]: < 18.3 nM
TGI [27]: > 100000 nM
GI50 [28]: 39.1 nM
TGI [28]: > 100000 nM
GI50 [29]: < 19.6 nM
TGI [29]: > 100000 nM
GI50 [30]: < 21.4 nM
TGI [30]: > 100000 nM
GI50 [31]: < 23.2 nM
TGI [31]: > 100000 nM
GI50 [32]: < 15.1 nM
TGI [32]: 211 nM
GI50 [33]: 4780 nM
TGI [33]: > 100000 nM
GI50 [34]: < 15.5 nM
TGI [34]: 59.4 nM
GI50 [35]: > 100000 nM
TGI [35]: > 100000 nM
GI50 [36]: < 18.1 nM
TGI [36]: > 100000 nM
GI50 [37]: 55.1 nM
TGI [37]: > 100000 nM
GI50 [38]: < 16.3 nM
TGI [38]: > 100000 nM
TGI [39]: > 100000 nM
GI50 [40]: 37.7 nM
TGI [40]: > 100000 nM
GI50 [41]: 22.7 nM
TGI [41]: > 100000 nM
GI50 [42]: 238 nM
TGI [42]: 1210 nM
GI50 [43]: 33.2 nM
TGI [43]: > 100000 nM
GI50 [44]: > 100000 nM
TGI [44]: > 100000 nM
GI50 [45]: < 19 nM
TGI [45]: > 100000 nM
TGI [46]: > 100000 nM
GI50 [47]: 28.2 nM
TGI [47]: > 100000 nM
GI50 [48]: 50.3 nM
TGI [48]: > 100000 nM
GI50 [49]: < 18 nM
GI50 [50]: < 10 nM
TGI [50]: 43.6 nM
GI50 [51]: < 13.6 nM
GI50 [52]: < 15.3 nM
TGI [52]: > 100000 nM
GI50 [53]: 40 nM
TGI [53]: > 100000 nM
GI50 [54]: < 10 nM
TGI [54]: > 100000 nM
GI50 [55]: < 20.8 nM
TGI [55]: > 100000 nM
GI50 [56]: < 10 nM
TGI [56]: < 14 nM
GI50 [57]: 43.8 nM
TGI [57]: > 100000 nM
